The values below come from PubChem BioAssay (NCI).

In general, GI50 refers to the concentration that inhibits growth by half. Broadly, the TGI is the concentration at which net growth stops. Read a low TGI as more potent growth arrest.

The structures appear in SMILES notation. Several values for one entry are separate records, joined by “and”; a condition that tells them apart may be missing. Equal values may be shown once.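 Test compounds were applied to cells in 96-well plates for 48 hours at 5 doses. GI50 is the concentration that inhibits growth by half. At the TGI there is no net growth.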

Some test systems named below: MALME-3M melanoma; MDA-MB-231 breast; SNB-19 CNS; HOP-62 NSCLC; NCI-H226 lung; M14 melanoma; MDA-MB-435; A549 NSCLC; NCI/ADR-RES ovarian; NCI-H522 lung; SK-MEL-5 melanoma; SR leukemia; HCT-116 colon; HOP-18 NSCLC; RPMI-8226 leukemia; DMS 273 small cell lung.
Test in all cases: DTP human tumour cell line panel, 48 h

`Cc1c(CNc2ccc(C(=O)NC(CC(=O)O)C(=O)O)cc2)ccc2nc(N)nc(N)c12` (centres undefined): the GI50 in the assay on MALME-3M melanoma was under 0.01 µM; in the assay on MDA-MB-231 breast it was over 1000 µM; in the assay with NCI-H226 lung, over 1000 µM; in the assay on NCI-H522 lung, 0.57 µM. Further, the TGI with MALME-3M melanoma, in the assay on MDA-MB-231 breast, in the assay with SNB-19 CNS, with HOP-62 NSCLC, in the assay with NCI-H226 lung and in the assay with M14 melanoma was over 1000 µM throughout. Besides, the TGI with MDA-MB-435 was over 1000 µM; in the assay on A549 NSCLC, over 1000 µM; in the assay with NCI/ADR-RES ovarian it was over 1000 µM; in the assay with NCI-H522 lung, > 73.8 µM and 691 µM; with SK-MEL-5 melanoma, over 1000 µM; in the assay on SR leukemia, over 1000 µM. Further, the TGI in the assay on HCT-116 colon was over 1000 µM.

Turning to `Cc1cccc(C(C)C)c1NC(=O)CC1Sc2ccccc2NC1=O` (centres undefined), the total growth inhibition concentration (TGI) in the assay with MALME-3M melanoma is 94.2 µM; in the assay on SNB-19 CNS it was over 100 µM; with HOP-62 NSCLC, over 100 µM; in the assay on NCI-H226 lung, over 100 µM; in the assay on M14 melanoma it was over 100 µM; in the assay with HOP-18 NSCLC it was over 100 µM. Moreover, the TGI in the assay with A549 NSCLC, in the assay on NCI-H522 lung, with SK-MEL-5 melanoma, with RPMI-8226 leukemia, in the assay with DMS 273 small cell lung and in the assay on SR leukemia was over 100 µM throughout. The molecule also yielded a TGI with HCT-116 colon of over 100 µM.

Take `CC(=O)Nc1ccc(-c2nc3ccccc3s2)cc1`: the TGI with MDA-MB-231 breast is 96.1 µM; in the assay with SNB-19 CNS, over 100 µM; in the assay on HOP-62 NSCLC, 45.8 µM; in the assay with NCI-H226 lung, over 100 µM; in the assay with M14 melanoma, over 100 µM; in the assay on MDA-MB-435, over 100 µM. In addition, the TGI with NCI/ADR-RES ovarian, in the assay with SK-MEL-5 melanoma, in the assay with RPMI-8226 leukemia, with SR leukemia and with HCT-116 colon was over 100 µM throughout.

Take `CN1CCN(CN2C(=O)C3C4C=CC(C3C2=O)C2C(=O)N(CN3CCN(C)CC3)C(=O)C42)CC1` (centres undefined): the TGI in the assay with MALME-3M melanoma is over 92 µM; with MDA-MB-231 breast, over 100 µM; in the assay with SNB-19 CNS, over 100 µM; in the assay with HOP-62 NSCLC, over 87.3 µM; in the assay on NCI-H226 lung, over 100 µM; in the assay with M14 melanoma, over 80.6 µM. Moreover, the TGI is over 100 µM in the assay on MDA-MB-435; over 100 µM in the assay with NCI/ADR-RES ovarian; over 59.5 µM in the assay with NCI-H522 lung; 51.4 µM in the assay on RPMI-8226 leukemia; over 100 µM with SR leukemia; over 62.1 µM with HCT-116 colon.

With `CC(C)=CCc1c(O)ccc2ccc(=O)oc12`, the TGI was over 100 µM in the assay with MALME-3M melanoma; over 100 µM in the assay with SNB-19 CNS; over 100 µM in the assay on NCI-H226 lung; over 100 µM with HOP-18 NSCLC; over 100 µM with A549 NSCLC; over 31.6 µM with NCI/ADR-RES ovarian. Further, the TGI with NCI-H522 lung is over 100 µM; in the assay with SK-MEL-5 melanoma it was 23.5 µM; in the assay on RPMI-8226 leukemia, over 100 µM; in the assay with DMS 273 small cell lung, over 100 µM; in the assay with HCT-116 colon it was over 100 µM.

Turning to `COc1cccc2c1C(=O)c1c(O)c3c(c(O)c1C2=O)C[C@@](O)(C(=O)CO)C[C@@H]3OC1CC(N)C(OC)C(C)O1` (some centres undefined), the TGI with MALME-3M melanoma is 0.283 µM; in the assay on MDA-MB-231 breast, 7.01 µM; in the assay on SNB-19 CNS, over 15.8 µM; in the assay on HOP-62 NSCLC it was 0.354 µM; in the assay on NCI-H226 lung, 0.47 µM; in the assay on M14 melanoma it was 0.996 µM. Also, the TGI with HOP-18 NSCLC was 0.977 µM; with A549 NSCLC it was 18.7 µM; in the assay with NCI-H522 lung it was 0.45 µM; with SK-MEL-5 melanoma, 0.189 µM; in the assay on RPMI-8226 leukemia, 0.374 µM; in the assay on DMS 273 small cell lung, 1.4 µM. In addition, the values for the TGI in the assay on SR leukemia and in the assay with HCT-116 colon were 0.364 µM and over 100 µM, respectively.

In the case of `CCOC(=O)c1csc(NC(=O)CN2CCN(C)CC2)n1`, the TGI in the assay on MALME-3M melanoma, in the assay with MDA-MB-231 breast, with SNB-19 CNS, in the assay on HOP-62 NSCLC, with NCI-H226 lung and in the assay on M14 melanoma was over 100 µM in each case. The TGI in the assay with MDA-MB-435, in the assay on A549 NSCLC, in the assay with NCI/ADR-RES ovarian, in the assay on SK-MEL-5 melanoma, in the assay with RPMI-8226 leukemia and with SR leukemia was over 100 µM in each case.

Consider `CC#C[P+](c1ccccc1)(c1ccccc1)c1ccccc1`, for which the TGI with MALME-3M melanoma was found to be 22.4 µM; with SNB-19 CNS, 15 µM; with HOP-62 NSCLC, 17.4 µM; in the assay with NCI-H226 lung it was 14.2 µM; in the assay with M14 melanoma, 5.78 µM; with HOP-18 NSCLC it was 25.4 µM. For the same molecule, the TGI in the assay with A549 NSCLC was over 100 µM; in the assay on NCI-H522 lung, 0.924 µM; in the assay with SK-MEL-5 melanoma it was 11.9 µM; in the assay with DMS 273 small cell lung, 10.6 µM; with SR leukemia it was 14.3 µM; in the assay with HCT-116 colon, 13.3 µM.

In the case of `COc1cc2c3c(c4cc(OC)c(OC)cc4c2cc1OC)C(=O)C1CCC(=O)N1C3` (centres undefined), the TGI is 83 µM with MALME-3M melanoma; over 100 µM in the assay with MDA-MB-231 breast; 59.3 µM in the assay on HOP-62 NSCLC; over 100 µM with MDA-MB-435; over 100 µM in the assay with NCI/ADR-RES ovarian; 23.3 µM with NCI-H522 lung. For the same molecule, the TGI with SK-MEL-5 melanoma and with RPMI-8226 leukemia was over 100 µM in each case.

Regarding `CCCC(O)C(NC(=O)CCl)C(=O)O` (centres undefined), the TGI in the assay with MALME-3M melanoma, with SNB-19 CNS, in the assay on HOP-62 NSCLC, in the assay with NCI-H226 lung, in the assay with HOP-18 NSCLC and in the assay with A549 NSCLC was over 100 µM throughout. For the same molecule, the TGI in the assay with NCI/ADR-RES ovarian, in the assay on NCI-H522 lung, in the assay with SK-MEL-5 melanoma, with RPMI-8226 leukemia, with DMS 273 small cell lung and with HCT-116 colon was over 100 µM each time.

Turning to `COc1cc2c(cc1O)C1C(O)C(O)C=C3CCN(C2)C31` (centres undefined), the TGI was found to be 3.86 µM in the assay on MALME-3M melanoma; 10.1 µM with SNB-19 CNS; 10.9 µM with HOP-62 NSCLC; 7.07 µM with NCI-H226 lung; 4.46 µM with M14 melanoma; 8.19 µM with HOP-18 NSCLC. The TGI in the assay with A549 NSCLC worked out at 10.5 µM; in the assay with NCI-H522 lung, 4.29 µM; with SK-MEL-5 melanoma, 2.95 µM; in the assay with RPMI-8226 leukemia it was 11.7 µM; in the assay on DMS 273 small cell lung, 8.24 µM; in the assay with SR leukemia it was 5.67 µM. The same molecule showed a TGI with HCT-116 colon of 2.25 µM.

Take `NCCCNCCCCNCCCN`: the total growth inhibition concentration (TGI) with MALME-3M melanoma is over 100 µM; in the assay with MDA-MB-231 breast, over 60.8 µM; in the assay with SNB-19 CNS, over 100 µM; in the assay with HOP-62 NSCLC it was over 100 µM; in the assay with NCI-H226 lung it was over 100 µM; in the assay on M14 melanoma it was 29.4 µM. Besides, the TGI in the assay with MDA-MB-435 is over 68.2 µM; with A549 NSCLC, over 100 µM; with NCI/ADR-RES ovarian it was over 91.6 µM; with NCI-H522 lung, 0.879 µM; with SK-MEL-5 melanoma, over 100 µM; in the assay with RPMI-8226 leukemia, 1.59 µM. Besides, the concentration for total growth inhibition (TGI) was over 36.8 µM in the assay with SR leukemia and 8.78 µM with HCT-116 colon.
